From ChEMBL document CHEMBL1201861, “Genomics of Drug Sensitity in Cancer screening data, Wellcome Trust Sanger Institute”

How the values were obtained:
Assay type in all cases: functional, cell-based
[1] = system: NCI-H187; test: cells; details: Homo sapiens;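 further: growth inhibition of NCI-H187 cells, read out as cell viability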
Description: SANGER: Inhibition of human NCI-H187 cell growth in a cell viability assay.

[2] = system: YT; test: cells; details: Homo sapiens
Description: SANGER: Inhibition of human YT cell growth in a cell viability assay.

[3] = system: BL-41; test: cells; details: Homo sapiens;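 further: growth inhibition of human BL-41 cells, read out with a cell viability assay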
Description: SANGER: Inhibition of human BL-41 cell growth in a cell viability assay.

[4] = system: RL; test: cells; details: Homo sapiens
Description: SANGER: Inhibition of human RL cell growth in a cell viability assay.

[5] = system: NCI-H1436; test: cells; details: Homo sapiens;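 further: growth suppression of human NCI-H1436 cells, determined with a cell viability readout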
Description: SANGER: Inhibition of human NCI-H1436 cell growth in a cell viability assay.

[6] = system: REH; test: cells; details: Homo sapiens;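 further: growth inhibition of REH cells determined with a cell viability read-out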
Description: SANGER: Inhibition of human REH cell growth in a cell viability assay.

[7] = system: NCI-H1694; test: cells; details: Homo sapiens;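 further: cell viability assay measuring inhibition of growth in human NCI-H1694 cells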
Description: SANGER: Inhibition of human NCI-H1694 cell growth in a cell viability assay.

[8] = system: SK-MM-2; test: cells; details: Homo sapiens;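 further: growth inhibition of human SK-MM-2 cells, read out with a cell viability assay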
Description: SANGER: Inhibition of human SK-MM-2 cell growth in a cell viability assay.

[9] = system: EHEB; test: cells; details: Homo sapiens;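 further: growth inhibition of human EHEB cells, read out with a cell viability assay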
Description: SANGER: Inhibition of human EHEB cell growth in a cell viability assay.

[10] = system: NCI-H716; test: cells; details: Homo sapiens;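 further: growth inhibition of human NCI-H716 cells, measured by a cell viability assay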
Description: SANGER: Inhibition of human NCI-H716 cell growth in a cell viability assay.

[11] = system: SU-DHL-1; test: SANGER: Inhibition of human SU-DHL-1 cell growth in a cell viability assay.
[12] = system: MHH-CALL-2; test: cells; details: Homo sapiens;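 further: growth inhibition of the cell line, read out in a cell viability assay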
Description: SANGER: Inhibition of human MHH-CALL-2 cell growth in a cell viability assay.

[13] = system: BC-3; test: cells; details: Homo sapiens;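 further: cell viability assay measuring growth inhibition of human BC-3 cells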
Description: SANGER: Inhibition of human BC-3 cell growth in a cell viability assay.

[14] = system: CHP-126; test: cells; details: Homo sapiens
Description: SANGER: Inhibition of human CHP-126 cell growth in a cell viability assay.

[15] = system: SUP-T1; test: cells; details: Homo sapiens;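 further: growth inhibition of human SUP-T1 cells, read out as cell viability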
Description: SANGER: Inhibition of human SUP-T1 cell growth in a cell viability assay.

[16] = system: MRK-nu-1; test: cells; details: Homo sapiens;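 further: cell viability assay measuring growth suppression of human MRK-nu-1 cells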
Description: SANGER: Inhibition of human MRK-nu-1 cell growth in a cell viability assay.

[17] = system: Raji; test: cells; details: Homo sapiens;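 further: cell viability assay measuring inhibition of Raji cell growth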
Description: SANGER: Inhibition of human Raji cell growth in a cell viability assay.

[18] = system: NCCIT; test: SANGER: Inhibition of human NCCIT cell growth in a cell viability assay.
[19] = system: TUR; test: cells; details: Homo sapiens;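 further: growth inhibition of human TUR cells, read out with a cell viability assay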
Description: SANGER: Inhibition of human TUR cell growth in a cell viability assay.

[20] = system: NCI-H524; test: cells; details: Homo sapiens;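 further: growth inhibition of human NCI-H524 cells, read out through a cell viability assay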
Description: SANGER: Inhibition of human NCI-H524 cell growth in a cell viability assay.

[21] = system: Hs-578T; test: cells; details: Homo sapiens
Description: SANGER: Inhibition of human Hs-578-T cell growth in a cell viability assay.

[22] = system: NUGC-3; test: cells; details: Homo sapiens;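 further: growth inhibition of human NUGC-3 cells, read out with a cell viability assay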
Description: SANGER: Inhibition of human NUGC-3 cell growth in a cell viability assay.

[23] = system: NCI-H1993; test: cells; details: Homo sapiens;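 further: growth inhibition of the cancer cell line, assessed with a cell viability assay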
Description: SANGER: Inhibition of human NCI-H1993 cell growth in a cell viability assay.

[24] = system: NCI-H661; test: cells; details: Homo sapiens;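 further: cell viability assay read-out, IC50 being the concentration that inhibits growth of the cells by half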
Description: SANGER: Inhibition of human NCI-H661 cell growth in a cell viability assay.

[25] = system: 8505C; test: cells; details: Homo sapiens
Description: SANGER: Inhibition of human 8505C cell growth in a cell viability assay.

[26] = system: A673; test: cells; details: Homo sapiens;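 further: growth inhibition of human A673 cells, read out through a cell viability assay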
Description: SANGER: Inhibition of human A673 cell growth in a cell viability assay.

[27] = system: SW626; test: cells; details: Homo sapiens;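 further: growth inhibition of SW626 cells, measured with a cell viability assay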
Description: SANGER: Inhibition of human SW626 cell growth in a cell viability assay.

[28] = system: LN-405; test: cells; details: Homo sapiens
Description: SANGER: Inhibition of human LN-405 cell growth in a cell viability assay.

[29] = system: HCC1395; test: cells; details: Homo sapiens;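 further: growth inhibition of HCC1395 cells, read out by a cell viability assay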
Description: SANGER: Inhibition of human HCC1395 cell growth in a cell viability assay.

[30] = system: MDA-MB-453; test: cells; details: Homo sapiens
Description: SANGER: Inhibition of human MDA-MB-453 cell growth in a cell viability assay.

[31] = system: BHT-101; test: cells; details: Homo sapiens
Description: SANGER: Inhibition of human BHT-101 cell growth in a cell viability assay.

[32] = system: SW837; test: cells; details: Homo sapiens;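 further: growth inhibition of SW837 cells, determined with a cell viability assay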
Description: SANGER: Inhibition of human SW837 cell growth in a cell viability assay.

[33] = system: T-24; test: cells; details: Homo sapiens;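 further: growth inhibition of T-24 cells, read out with a cell viability assay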
Description: SANGER: Inhibition of human T-24 cell growth in a cell viability assay.

[34] = system: T98G; test: cells; details: Homo sapiens;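 further: growth inhibition of T98G cells, read out by a cell viability assay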
Description: SANGER: Inhibition of human T98G cell growth in a cell viability assay.

[35] = system: MKN-7; test: cells; details: Homo sapiens;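 further: growth inhibition of MKN-7 cells, read out with a cell viability assay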
Description: SANGER: Inhibition of human MKN7 cell growth in a cell viability assay.

[36] = system: 786-0; test: cells; details: Homo sapiens
Description: SANGER: Inhibition of human 786-0 cell growth in a cell viability assay.

[37] = system: LU-99A; test: cells; details: Homo sapiens;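 further: growth inhibition of LU-99A cells, read out with a cell viability assay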
Description: SANGER: Inhibition of human LU-99A cell growth in a cell viability assay.

[38] = system: FTC-133; test: cells; details: Homo sapiens
[39] = system: SKG-IIIa; test: cells; details: Homo sapiens;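 further: cell growth inhibition, read out with a cell viability assay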
Description: SANGER: Inhibition of human SKG-IIIa cell growth in a cell viability assay.

[40] = system: A-375; test: cells; details: Homo sapiens;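 further: growth inhibition of A375 cells, read out with a cell viability assay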
Description: SANGER: Inhibition of human A375 cell growth in a cell viability assay.

[41] = system: CP50-MEL-B; test: cells; details: Homo sapiens;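 further: growth inhibition of the human cell line, measured with a cell viability read-out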
Description: SANGER: Inhibition of human CP50-MEL-B cell growth in a cell viability assay.

[42] = system: COR-L105; test: cells; details: Homo sapiens
Description: SANGER: Inhibition of human COR-L105 cell growth in a cell viability assay.

[43] = system: DOK; test: cells; details: Homo sapiens;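 further: cell viability assay read-out, values reflect inhibition of cell growth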
Description: SANGER: Inhibition of human DOK cell growth in a cell viability assay.

[44] = system: MKN-28; test: cells; details: Homo sapiens;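 further: cell viability assay read-out, IC50 reflects suppression of growth of human MKN-28 cells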
Description: SANGER: Inhibition of human MKN28 cell growth in a cell viability assay.

[45] = system: MHH-ES-1; test: cells; details: Homo sapiens
Description: SANGER: Inhibition of human MHH-ES-1 cell growth in a cell viability assay.

[46] = system: NCI-H1651; test: cells; details: Homo sapiens;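 further: Read-out is a cell viability assay, with IC50 expressing inhibition of NCI-H1651 cell growth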
Description: SANGER: Inhibition of human NCI-H1651 cell growth in a cell viability assay.

[47] = system: DBTRG-05MG; test: cells; details: Homo sapiens;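 further: cell viability assay measuring growth inhibition of human DBTRG-05MG cells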
Description: SANGER: Inhibition of human DBTRG-05MG cell growth in a cell viability assay.

[48] = system: Panc1005; test: cells; details: Homo sapiens;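 further: growth inhibition of human PANC-10-05 cells, measured by a cell viability assay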
Description: SANGER: Inhibition of human PANC-10-05 cell growth in a cell viability assay.

[49] = system: G-361; test: cells; details: Homo sapiens
[50] = system: NCI-H520; test: cells; details: Homo sapiens;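 further: growth inhibition of NCI-H520 cells, measured by a cell viability assay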
Description: SANGER: Inhibition of human NCI-H520 cell growth in a cell viability assay.

[51] = system: NCI-H2342; test: cells; details: Homo sapiens;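 further: growth inhibition of the cancer cell line, determined with a cell viability assay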
Description: SANGER: Inhibition of human NCI-H2342 cell growth in a cell viability assay.

[52] = system: A-427; test: cells; details: Homo sapiens;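 further: growth inhibition of human A-427 cells, read out by a cell viability assay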
Description: SANGER: Inhibition of human A427 cell growth in a cell viability assay.

[53] = system: OE33; test: cells; details: Homo sapiens;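 further: growth inhibition of human OE33 cells, measured by a cell viability assay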
Description: SANGER: Inhibition of human OE33 cell growth in a cell viability assay.

[54] = system: CAL-54; test: cells; details: Homo sapiens;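 further: growth inhibition of CAL-54 cells, read out by a viability measurement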
Description: SANGER: Inhibition of human CAL-54 cell growth in a cell viability assay.

[55] = system: A-431; test: cells; details: Homo sapiens;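 further: growth inhibition of A-431 cells, determined with a cell viability read-out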
Description: SANGER: Inhibition of human A431 cell growth in a cell viability assay.

[56] = system: CAL-33; test: cells; details: Homo sapiens;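 further: growth inhibition of CAL-33 cells, read out with a cell viability assay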
Description: SANGER: Inhibition of human CAL-33 cell growth in a cell viability assay.

[57] = system: WM-115; test: cells; details: Homo sapiens
Description: SANGER: Inhibition of human WM-115 cell growth in a cell viability assay.

[58] = system: BHY; test: cells; details: Homo sapiens;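 further: cell growth inhibition read out by a viability assay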
Description: SANGER: Inhibition of human BHY cell growth in a cell viability assay.

[59] = system: DMS-273; test: cells; details: Homo sapiens
Description: SANGER: Inhibition of human DMS-273 cell growth in a cell viability assay.

[60] = system: SBC-5; test: cells; details: Homo sapiens;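 further: cell viability assay read-out, IC50 is the concentration that inhibits growth of the cells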
Description: SANGER: Inhibition of human SBC-5 cell growth in a cell viability assay.

[61] = system: KYSE-140; test: cells; details: Homo sapiens;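 further: cell viability assay measuring growth inhibition in human KYSE-140 cells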
Description: SANGER: Inhibition of human KYSE-140 cell growth in a cell viability assay.

[62] = system: CHL-1; test: cells; details: Homo sapiens;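 further: cell growth inhibition, read out with a cell viability assay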
Description: SANGER: Inhibition of human CHL-1 cell growth in a cell viability assay.

[63] = system: SK-MEL-28; test: cells; details: Homo sapiens;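 further: growth inhibition of human SK-MEL-28 cells, read out with a cell viability assay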
Description: SANGER: Inhibition of human SK-MEL-28 cell growth in a cell viability assay.

[64] = system: NCI-H2030; test: cells; details: Homo sapiens;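 further: growth inhibition of human NCI-H2030 cells, read out by a cell viability assay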
Description: SANGER: Inhibition of human NCI-H2030 cell growth in a cell viability assay.

Compound: COc1cc(C)c(Sc2cnc(NC(=O)c3ccc(CNC(C)C(C)(C)C)cc3)s2)cc1C(=O)N1CCN(C(C)=O)CC1 (stereo not drawn)
- IC50 [1]: > 10200 nM
- IC50 [2]: > 10200 nM
- IC50 [3]: > 10200 nM
- IC50 [4]: > 10200 nM
- IC50 [5]: > 10200 nM
- IC50 [6]: > 10200 nM
- IC50 [7]: > 10200 nM
- IC50 [8]: > 10200 nM
- IC50 [9]: > 10200 nM
- IC50 [10]: > 10200 nM
- IC50 [11]: > 10200 nM
- IC50 [12]: > 10200 nM
- IC50 [13]: > 10200 nM
- IC50 [14]: > 10200 nM
- IC50 [15]: 7480 nM
- IC50 [16]: 8300 nM
- IC50 [17]: > 10200 nM
- IC50 [18]: > 10200 nM
- IC50 [19]: > 10200 nM
- IC50 [20]: > 10200 nM

Compound: O=c1[nH]c2ccccc2n1C1CCN(Cc2ccc(-c3nc4cc5[nH]cnc5cc4nc3-c3ccccc3)cc2)CC1
- IC50 [21]: > 2560 nM
- IC50 [1]: > 2560 nM
- IC50 [22]: > 2560 nM
- IC50 [2]: > 2560 nM
- IC50 [3]: > 2560 nM
- IC50 [23]: > 2560 nM
- IC50 [24]: > 2560 nM
- IC50 [4]: > 2560 nM
- IC50 [25]: > 2560 nM
- IC50 [26]: > 2560 nM
- IC50 [27]: > 2560 nM
- IC50 [5]: > 2560 nM
- IC50 [28]: > 2560 nM
- IC50 [29]: > 2560 nM
- IC50 [30]: > 2560 nM
- IC50 [31]: > 2560 nM
- IC50 [6]: > 2560 nM
- IC50 [32]: > 2560 nM
- IC50 [33]: > 2560 nM
- IC50 [34]: > 2560 nM
- IC50 [7]: > 2560 nM
- IC50 [35]: > 2560 nM
- IC50 [8]: > 2560 nM
- IC50 [36]: 1100 nM
- IC50 [37]: > 2560 nM
- IC50 [38]: > 2560 nM
- IC50 [39]: > 2560 nM
- IC50 [40]: > 2560 nM
- IC50 [41]: > 2560 nM
- IC50 [9]: > 2560 nM
- IC50 [42]: > 2560 nM
- IC50 [10]: > 2560 nM
- IC50 [43]: > 2560 nM
- IC50 [44]: > 2560 nM
- IC50 [45]: > 2560 nM
- IC50 [11]: > 2560 nM
- IC50 [12]: > 2560 nM
- IC50 [13]: > 2560 nM
- IC50 [46]: > 2560 nM
- IC50 [47]: > 2560 nM
- IC50 [48]: > 2560 nM
- IC50 [49]: > 2560 nM
- IC50 [50]: 1130 nM
- IC50 [14]: > 2560 nM
- IC50 [51]: 938 nM
- IC50 [52]: > 2560 nM
- IC50 [53]: 1890 nM
- IC50 [54]: > 2560 nM
- IC50 [55]: > 2560 nM
- IC50 [56]: > 2560 nM
- IC50 [15]: > 2560 nM
- IC50 [57]: > 2560 nM
- IC50 [16]: > 2560 nM
- IC50 [58]: > 2560 nM
- IC50 [59]: > 2560 nM
- IC50 [60]: > 2560 nM
- IC50 [17]: > 2560 nM
- IC50 [18]: > 2560 nM
- IC50 [61]: > 2560 nM
- IC50 [62]: > 2560 nM
- IC50 [19]: > 2560 nM
- IC50 [20]: > 2560 nM
- IC50 [63]: > 2560 nM
- IC50 [64]: 1940 nM

Compound: Fc1cc(-c2cc[nH]/c(=N/c3ccc(-n4cnc(N5CCOCC5)n4)cc3)n2)cc(N2CCOCC2)c1
- IC50 [21]: > 5120 nM
- IC50 [1]: 2790 nM
- IC50 [22]: 687 nM
- IC50 [2]: 204 nM
- IC50 [3]: 307 nM
- IC50 [23]: 2280 nM
- IC50 [24]: 501 nM
- IC50 [4]: 1590 nM
- IC50 [25]: 1260 nM
- IC50 [26]: 1120 nM
- IC50 [27]: 1090 nM
- IC50 [5]: 1180 nM
- IC50 [28]: 991 nM
- IC50 [29]: 413 nM
- IC50 [30]: > 5120 nM
- IC50 [31]: 667 nM
- IC50 [6]: 722 nM
- IC50 [32]: 2950 nM
- IC50 [33]: 2870 nM
- IC50 [34]: 567 nM
- IC50 [7]: 1500 nM
- IC50 [35]: 3140 nM
- IC50 [8]: 1270 nM
- IC50 [36]: 228 nM
- IC50 [37]: 740 nM
- IC50 [38]: > 5120 nM
- IC50 [39]: 4890 nM
- IC50 [40]: 623 nM
- IC50 [41]: 722 nM
- IC50 [9]: 376 nM
- IC50 [42]: 235 nM
- IC50 [10]: 3920 nM
- IC50 [43]: 858 nM
- IC50 [44]: 301 nM
- IC50 [45]: 274 nM
- IC50 [11]: 346 nM
- IC50 [12]: 762 nM
- IC50 [13]: 598 nM
- IC50 [46]: 1070 nM
- IC50 [47]: 750 nM
- IC50 [48]: 460 nM
- IC50 [49]: 266 nM
- IC50 [50]: 467 nM
- IC50 [14]: 608 nM
- IC50 [51]: 362 nM
- IC50 [52]: 286 nM
- IC50 [53]: 517 nM
- IC50 [54]: 1880 nM
- IC50 [55]: 249 nM
- IC50 [56]: 826 nM
- IC50 [15]: 427 nM
- IC50 [57]: > 5120 nM
- IC50 [16]: 545 nM
- IC50 [58]: 510 nM
- IC50 [59]: 105 nM
- IC50 [60]: 398 nM
- IC50 [17]: 495 nM
- IC50 [18]: 398 nM
- IC50 [61]: 1050 nM
- IC50 [62]: 490 nM
- IC50 [19]: 363 nM
- IC50 [20]: > 5120 nM
- IC50 [63]: > 5120 nM
- IC50 [64]: 169 nM
